Experimental data published in publication PMC11995724, “Antibiotic target discovery by integrated phenotypic and activity-based profiling of electrophilic fragments” (Cell chemical biology, 2025).

Assay: in vitro
Settings: human, hek293t cells

SMILES	viability at 48 h, 25 µM [%]
CCc1cc(SC#N)cc(C)c1NC(=O)CCl [4-M04, 2-chloro-N-[4-(cyanosulfanyl)-2-ethyl-6-methylphenyl]acetamide]	17.6
O=C(CCl)Nc1ccc(F)c(F)c1F [4-M05, 2-chloro-N-(2,3,4-trifluorophenyl)acetamide]	0.759
CCN(CC)S(=O)(=O)c1cccc(NC(=O)CCl)c1 [4-M07, 2-chloro-N-[3-(diethylsulfamoyl)phenyl]acetamide]	1.11
COc1ccc(NC(C)=O)cc1NC(=O)C(C)Cl (stereo not drawn) [4-M08, 2-chloro-N-(5-acetamido-2-methoxyphenyl)propanamide]	84.8
COc1cc(NC(=O)CCl)c(C)cc1[N+](=O)[O-] [4-M09, 2-chloro-N-(5-methoxy-2-methyl-4-nitrophenyl)acetamide]	1.27
CC(Cl)C(=O)Nc1cccc2ncccc12 (stereo not drawn) [4-M10, 2-chloro-N-(quinolin-5-yl)propanamide]	97.4
CSc1ccccc1NC(=O)C(C)Cl (stereo not drawn) [4-M12, 2-chloro-N-[2-(methylsulfanyl)phenyl]propanamide]	95.2
Cc1ccc(NC(=O)CCl)cc1[N+](=O)[O-] [4-M13, 2-chloro-N-(4-methyl-3-nitrophenyl)acetamide]	59.2
Cc1ccc(C)c(-c2cc(NC(=O)CCl)n(-c3ccccc3)n2)c1 [4-M14, 2-chloro-N-[3-(2,5-dimethylphenyl)-1-phenyl-1H-pyrazol-5-yl]acetamide]	0.149
Cc1ccc(N(CCC#N)C(=O)CCl)cc1 [4-M15, 2-chloro-N-(2-cyanoethyl)-N-(4-methylphenyl)acetamide]	1.24
O=C(CCl)Nc1ccccc1F [4-M16, 2-chloro-N-(2-fluorophenyl)acetamide]	0.723
COc1cc(NC(=O)CCl)c(Cl)cc1C(=O)O [4-M17, 5-chloro-4-(2-chloroacetamido)-2-methoxybenzoic acid]	1.05
O=C(CCl)N1c2ccccc2SCC1c1ccccc1 (stereo not drawn) [4-M18, 2-chloro-1-(3-phenyl-3,4-dihydro-2H-1,4-benzothiazin-4-yl)ethan-1-one]	-0.0405
COc1ccc(OC)c(C(C)NC(=O)CCl)c1 (stereo not drawn) [4-M19, 2-chloro-N-[1-(2,5-dimethoxyphenyl)ethyl]acetamide]	1.13
COc1ccc(C2=NN(C(=O)CCl)C(c3ccc(F)cc3)C2)cc1 (stereo not drawn) [4-M20, 2-chloro-1-[5-(4-fluorophenyl)-3-(4-methoxyphenyl)-4,5-dihydro-1H-pyrazol-1-yl]ethan-1-one]	0.00411
Cc1c(C#N)c(NC(=O)CCl)n(Cc2ccccc2)c1C [4-M21, N-(1-benzyl-3-cyano-4,5-dimethyl-1H-pyrrol-2-yl)-2-chloroacetamide]	-0.247
O=C(CCl)N1N=C(C=Cc2ccco2)CC1c1ccco1 (stereo not drawn) [4-M22, 2-chloro-1-[5-(furan-2-yl)-3-[2-(furan-2-yl)ethenyl]-4,5-dihydro-1H-pyrazol-1-yl]ethan-1-one]	-0.145
N#Cc1ccc(NC(=O)CCl)cc1Cl [4-N03, 2-chloro-N-(3-chloro-4-cyanophenyl)acetamide]	0.427
O=C(CCl)NCCCc1ccccc1 [4-N04, 2-chloro-N-(3-phenylpropyl)acetamide]	50.6

SMILES	viability at 48 h, 25 µM [%]
CC(Cl)C(=O)N(C)CC(=O)Nc1ccccc1C(F)(F)F (stereo not drawn) [4-N05, 2-chloro-N-methyl-N-({[2-(trifluoromethyl)phenyl]carbamoyl}methyl)propanamide]	79.8
COc1ccc(-c2csc(NC(=O)CCl)n2)cc1 [4-N06, 2-chloro-N-[4-(4-methoxyphenyl)-1,3-thiazol-2-yl]acetamide]	0.915
O=C(CCl)N1c2ccccc2Sc2ccc(Cl)cc21 [4-N07, 2-chloro-1-(2-chloro-10H-phenothiazin-10-yl)ethan-1-one]	122
O=C(CCl)Nc1ccc(C(F)(F)F)cc1[N+](=O)[O-] [4-N08, 2-chloro-N-[2-nitro-4-(trifluoromethyl)phenyl]acetamide]	87.1
O=C(CCl)Nc1ccccc1OC(F)F [4-N09, 2-chloro-N-[2-(difluoromethoxy)phenyl]acetamide]	0.7
O=C(CCl)Nc1ccc(-c2ccccc2)cc1 [4-N10, N-{[1,1'-biphenyl]-4-yl}-2-chloroacetamide]	0.814
O=C(CCl)NCCc1ccc2c(c1)OCCO2 [4-N11, 2-chloro-N-[2-(2,3-dihydro-1,4-benzodioxin-6-yl)ethyl]acetamide]	18.9
COc1cc(NC(=O)CCl)cc(OC)c1OC [4-N12, 2-chloro-N-(3,4,5-trimethoxyphenyl)acetamide]	1.27
CC(Cl)C(=O)Nc1cc(Cl)c(Cl)cc1Cl (stereo not drawn) [4-N13, 2-chloro-N-(2,4,5-trichlorophenyl)propanamide]	71.7
CC(C)C(NC(=O)CCl)c1ccc2c(c1)OCCCO2 (stereo not drawn) [4-N14, 2-chloro-N-[1-(3,4-dihydro-2H-1,5-benzodioxepin-7-yl)-2-methylpropyl]acetamide]	28.5
CC(Cl)C(=O)Nc1cc(C(F)(F)F)ccc1Cl (stereo not drawn) [4-N15, 2-chloro-N-[2-chloro-5-(trifluoromethyl)phenyl]propanamide]	83.3
O=C(CCl)Nc1ccc(S(=O)(=O)C(F)F)cc1 [4-N16, 2-chloro-N-(4-difluoromethanesulfonylphenyl)acetamide]	0.598
Cc1ccc(C(=O)c2ccccc2NC(=O)CCl)cc1 [4-N17, 2-chloro-N-[2-(4-methylbenzoyl)phenyl]acetamide]	2.4
Cc1c(C#N)c(NC(=O)CCl)n(C2CCCCC2)c1C [4-N18, 2-chloro-N-(3-cyano-1-cyclohexyl-4,5-dimethyl-1H-pyrrol-2-yl)acetamide]	0.0875
COc1ccc(C2=NN(C(=O)CCl)C(c3ccco3)C2)cc1 (stereo not drawn) [4-N19, 2-chloro-1-[5-(furan-2-yl)-3-(4-methoxyphenyl)-4,5-dihydro-1H-pyrazol-1-yl]ethan-1-one]	0.0172
CC(Cl)C(=O)N1CC(=O)Nc2cc(C(F)(F)F)ccc21 (stereo not drawn) [4-N20, 4-(2-chloropropanoyl)-7-(trifluoromethyl)-1,2,3,4-tetrahydroquinoxalin-2-one]	82.1
O=C(CCl)NC1CCCN(c2cc(N3CCOCC3)ncn2)C1 (stereo not drawn) [4-N21, 2-chloro-N-{1-[6-(morpholin-4-yl)pyrimidin-4-yl]piperidin-3-yl}acetamide]	4.92
O=C(CCl)Nc1ccccc1Cc1ccccc1 [4-N22, N-(2-benzylphenyl)-2-chloroacetamide]	0.906
Cc1ccc(F)cc1NC(=O)CCl [4-O03, 2-chloro-N-(5-fluoro-2-methylphenyl)acetamide]	0.509

SMILES	viability at 48 h, 25 µM [%]
COc1ccc(S(=O)(=O)N2CCOCC2)cc1NC(=O)CCl [4-O04, 2-chloro-N-[2-methoxy-5-(morpholine-4-sulfonyl)phenyl]acetamide]	1.63
O=C(CCl)Nc1cc2c(cc1[N+](=O)[O-])OCCCO2 [4-O05, 2-chloro-N-(8-nitro-3,4-dihydro-2H-1,5-benzodioxepin-7-yl)acetamide]	103
CC(Cl)C(=O)NC1CCCCC1 (stereo not drawn) [4-O06, 2-chloro-N-cyclohexylpropanamide]	115
COc1cc([N+](=O)[O-])ccc1NC(=O)CCl [4-O07, 2-chloro-N-(2-methoxy-4-nitrophenyl)acetamide]	1.19
CC(Cl)C(=O)Nc1ccc(F)c(F)c1F (stereo not drawn) [4-O08, 2-chloro-N-(2,3,4-trifluorophenyl)propanamide]	88.8
N#Cc1cc([N+](=O)[O-])ccc1NC(=O)CCl [4-O09, 2-chloro-N-(2-cyano-4-nitrophenyl)acetamide]	1.1
CCC(C)c1ccccc1NC(=O)C(C)Cl (stereo not drawn) [4-O10, N-[2-(butan-2-yl)phenyl]-2-chloropropanamide]	85.1
Cc1nn(Cc2ccccc2)c(C)c1CNC(=O)CCl [4-O11, N-[(1-benzyl-3,5-dimethyl-1H-pyrazol-4-yl)methyl]-2-chloroacetamide]	1.47
O=C(CCl)NCCc1ccc(Cl)cc1 [4-O12, 2-chloro-N-[2-(4-chlorophenyl)ethyl]acetamide]	7.11
O=C(CCl)Nc1ccccc1Sc1ccc(Cl)cc1 [4-O13, 2-chloro-N-{2-[(4-chlorophenyl)sulfanyl]phenyl}acetamide]	0.318
CC(C)c1ccc(C(NC(=O)CCl)C(C)C)cc1 (stereo not drawn) [4-O14, 2-chloro-N-{2-methyl-1-[4-(propan-2-yl)phenyl]propyl}acetamide]	0.576
CCOC(=O)c1c(NC(=O)CCl)sc(C)c1C [4-O15, ethyl 2-(2-chloroacetamido)-4,5-dimethylthiophene-3-carboxylate]	57
O=C(CCl)Nc1c(Cl)c(Cl)cc(Cl)c1Cl [4-O16, 2-chloro-N-(2,3,5,6-tetrachlorophenyl)acetamide]	1.16
COc1ccccc1NC(=O)c1ccc(NC(=O)CCl)cc1 [4-O17, 4-(2-chloroacetamido)-N-(2-methoxyphenyl)benzamide]	-0.113
O=C(CCl)N1N=C(c2cccs2)CC1c1cccs1 (stereo not drawn) [4-O18, 1-[3,5-bis(thiophen-2-yl)-4,5-dihydro-1H-pyrazol-1-yl]-2-chloroethan-1-one]	0.013
O=C(CCl)NCC1(c2ccccc2)CCC1 [4-O19, 2-chloro-N-[(1-phenylcyclobutyl)methyl]acetamide]	0.976
O=C(CCl)N1N=C(c2cccs2)CC1c1ccc(F)cc1 (stereo not drawn) [4-O20, 2-chloro-1-[5-(4-fluorophenyl)-3-(thiophen-2-yl)-4,5-dihydro-1H-pyrazol-1-yl]ethan-1-one]	0.502
Cc1c(C#N)c(NC(=O)CCl)n(Cc2ccc(F)cc2)c1C [4-O21, 2-chloro-N-{3-cyano-1-[(4-fluorophenyl)methyl]-4,5-dimethyl-1H-pyrrol-2-yl}acetamide]	0.102
Cc1ccc(C2=NN(C(=O)CCl)C(c3cccs3)C2)cc1 (stereo not drawn) [4-O22, 2-chloro-1-[3-(4-methylphenyl)-5-(thiophen-2-yl)-4,5-dihydro-1H-pyrazol-1-yl]ethan-1-one]	-0.0957
